Reference: article PMC10135567, “New Indole-3-Propionic Acid and 5-Methoxy-Indole Carboxylic Acid Derived Hydrazone Hybrids as Multifunctional Neuroprotectors” (Antioxidants, 2023)

Columns and labels:
[1] = tested on: isolated rat-brain synaptosomes; experiment: 6-OHDA-induced neurotoxicity in isolated rat synaptosomes, synaptosomal viability; assay type: cell-based; details: 10 µM pre-incubation 30 min, then 150 µM 6-OHDA 1 h; for viability at 10 µM: Rattus norvegicus, read-out: synaptosomal viability (SV) preserved, as compared to 6-OHDA
Protocol: This neurotoxicity model was based on the metabolism and auto-oxidation of 6-hydroxy dopamine responsible for the reactive oxygen species and quinones generation, ultimately leading to neurotoxicity and neurodegeneration. The experiment was performed by pre-incubation of the synaptosomes with 10 µM of the compounds for 30 min, followed by the addition of 150 µM 6-hydroxy dopamine for induction of neurotoxicity. After 1 h, they were centrifuged twice for 1 min at 15,000 × g. After the second wash, the precipitates were resolved with buffer B and glucose.

[2] = Fe(II)-induced deoxyribose degradation assay; assay type: biochemical; details: 80 µM, 2-deoxyribose 0.5 mM, 0.1 mM FeCl2; for absorbance ratio, % of the controls (deoxyribose degradation): lower = stronger antioxidant
Protocol: The lipid peroxidation assay and a modification of the deoxyribose-degradation assay were used. Two types of measurement compositions in phosphate buffer (PB–K2HPO4/KH2PO4, pH 7.4) were prepared for both tests: (i) samples, containing the biologically relevant molecules (lecithin emulsion or deoxyribose), iron, and the tested hydrazones at the concentrations indicated below the figures; and (ii) controls, in which the tested hydrazones were omitted. The data for the sample activity were presented as a percentage of the control measurement.
The deoxyribose (0.5 mM) damage was induced by adding FeCl2 (0.1 mM). The measurement compositions were incubated at 37 °C for 30 min. The next step comprised adding 0.5 mL of 2.8% trichloroacetic acid and 0.5 mL of thiobarbituric acid. Then, the samples were heated in boiling water for 20 min, and their absorbance was estimated at 532 nm (characteristic band for the generated chromophore) via Shimadzu UV-1601 UV-vis spectrophotometer.

[3] = MTT cell viability assay (cytotoxicity), SH-SY5Y; details: human, SH-SY5Y neuroblastoma cells
Protocol: Neuroblastoma cell line SH-SY5Y (94030304) was acquired from the European Collection of Cell Cultures (ECACC, Salisbury, UK). Cells were cultured in a medium prepared with RPMI basic media supplemented with 10% heat-inactivated FBS (fetal bovine serum), 2 mM L-glutamine, 1% antibiotics (penicillin/streptomycin), and incubated at 37 °C in a humidified atmosphere containing 5% of CO2. The culture’s medium was replaced at a time interval of 2–3 days.
Cell viability was assessed via the mitochondrial reductase-dependent reaction of (3-(4,5-dimethylthiazol-2-yl)- 2,5-diphenyl tetrazolium bromide (MTT, cat. no. 475989, Calbiochem, Merck KGaA, Darmstadt, Germany). The SH-SY5Y and bEnd3 cell lines were seeded in 96-well plates at a density of 0.7 × 10^4 (bEnd3) or 2 × 10^4 (SH-SY5Y) cells/well and allowed to adhere for 24 h at 37 °C, 5% CO2. Then, the cells were incubated with the compounds (1–500 μM) for a preset time (24 h). For the solvent, the control cells were treated with DMSO corresponding to the highest concentration of DMSO in the samples (0.5% DMSO) in order to exclude its cytotoxic effect on the cells. For each concentration, a set of at least 6 wells were used. After incubation, the solution from each well was exchanged with fresh culture medium (100 µL/well), containing the MTT reagent (0.5 mg/mL) and incubated for 3 h at 37 °C in a humidified atmosphere and 5% CO2. The obtained formazan crystals were dissolved in 100 µL/well of 5% formic acid in propan-2-ol solution (or DMSO). The absorbance was measured at 570 nm via multiplate reader Tecan Infinite F200 PRO (Tecan Trading AG., Männedorf, Switzerland) or Synergy 2 (BioTek Instruments, Inc., Highland Park, Winooski, VT, USA).
Both the SH-SY5Y and bEnd3 cells were treated with the test compounds in a concentration range from 1 to 500 µM for 24 h.

bEnd3 monolayer = experiment: Permeability assay, static BBB model of bEnd3 monolayer (streptavidin-HRP passage); assay type: cell-based, mouse; details: 90 min
Protocol: To evaluate the compounds’ effect on a BBB model, bEnd3 endothelial cells were seeded on polycarbon (PC) cell-culture inserts with 0.4 µm pore size (cat. no. 1CH3.1, BRAND GMBH + CO KG, Wertheim, Germany) and a density of 5.6 × 10^3 cells/insert. The inserts were placed in a 24-well plate containing 1 mL of cell-culture medium. […] On the second day of incubation, the cell-culture medium was refreshed. To ensure 100% confluence, the inserts were evaluated for medium leakage before the experiment. […] Following the incubation, the inserts were placed in a new 24-well plate containing 1 mL Phenol Red free–DMEM (cat. no. D1145, Sigma-Aldrich Co. LLC, St. Louis, MO, USA) without serum. In the upper chamber, a solution of streptavidin, conjugated with horse-radish peroxidase (HRP, cat. no. SA00001-0, Proteintech, Rosemont, Illinois, USA) (1:1000) in serum-free phenol red medium was added. The cells were further incubated for 5 min at 37 °C and 5% CO2, after which the inserts were removed. The remaining medium in the 24-well plate was collected and vortexed briefly, and 3 × 50 µL aliquots were transferred into a 96-well plate. A total of 50 µL TMB Signal+ substrate solution (BUF054A, Bio-Rad, Hercules, CA, USA) was added to each well and incubated for 5 min at 37 °C. The HRP converted the TMB to a blue-colored product. To stop the reaction, 50 µL of 0.2 N H2SO4 was added that caused the blue color to turn yellow. […] Each condition was tested at least twice.
To further explore the neuroprotective effect of the compounds, we tested their ability to influence the BBB and its permeability, utilizing a static BBB model with brain microvascular endothelial cell line bEnd3 [36], as it would be essential for the compounds to pass the BBB and protect the neuronal cells. In addition to their endothelial origin, the bEnd3 cells were strongly connected by specific proteins (ZO-1, claudin-5) forming tight junctions (TJs). This was crucial for preventing unregulated […] transport and sustaining the apical–basal polarity of the monolayer. Here, we determined any changes in the permeability of the BBB by imitating an endothelial barrier via a static BBB model of bEnd3 cells (Figure 11a,c,e). This allowed us to determine the possibility of drug passage. It should be noted, that even though drug passage was desirable, any irreversible modifications of the cell monolayer and the TJs were considered threatening. Therefore, in parallel to the permeability tests, the bEnd3 cells were stained for TJ-formation and ZO-1 distribution (Figure 11b,d,f).

[4] = Superoxide radical scavenging, xanthine/xanthine oxidase/NBT system; assay type: biochemical; details: for absorbance ratio (NBT reduction, % of control): 1, 10, 50 and 100 µM; for decrease of NBT reduction as compared to the controls: 100 µM (highest tested concentration); for increase of absorbance ratio as compared to the controls: 100 µM
Protocol: The 1 mL cuvette for the control contained 1 mM xanthine, 20 µL xanthine oxidase (100 IU/L), and 0.04 mM NBT [43, 44]. In the sample compositions, the tested hydrazones at different concentrations were added. All measurement compositions were incubated at 37 °C, and the absorbance was determined spectrophotometrically at 560 nm via Shimadzu UV-1601 UV-vis spectrophotometer.
The potential capability of the investigated compounds to prevent the superoxide-anion radical-induced NBT reduction was investigated spectrophotometrically by xanthine-oxidase assay. The assay was carried out at the final concentration of the tested compounds, at 1, 10, 50, and 100 µM.

| Compound | viability at 10 µM [1] [%] | absorbance ratio, % of the controls (deoxyribose degradation) [2] | IC50 at 24 h [3] [µM] | change of permeability of bEnd3 monolayer vs. control (in words) (bEnd3 monolayer; 50 µM) | absorbance ratio (NBT reduction, % of control) [4] | melting point [°C] | change of permeability of bEnd3 monolayer vs. control (in words) (bEnd3 monolayer; 10 µM) | decrease of NBT reduction as compared to the controls [4] | influence on the permeability of the monolayer (in words) (bEnd3 monolayer; 10 or 50 µM) | increase in the permeability of bEnd3 monolayer (bEnd3 monolayer; 10 µM) [times] | increase of absorbance ratio as compared to the controls [4] [%] | pro-oxidant effect above the controls (deoxyribose degradation) [2] | NBT reduction decreased to ([4]; 10 µM) [%] | synaptosomal viability (SV) preserved, as compared to 6-OHDA [1] [%] |
| --- | --- | --- | --- | --- | --- | --- | --- | --- | --- | --- | --- | --- | --- | --- |
| COc1ccc2[nH]c(C(=O)NN=Cc3ccc(O)cc3O)cc2c1 [Compound 5c, N′-(2,4-Dihydroxybenzylidene)-5-methoxy-1H-indole-2-carbohydrazide] | 44 | did not induce a modulating effect | 73.9 | reduced the permeability | did not influence the estimated absorbance ratio at any of the tested concentrations |  |  |  |  |  |  |  |  |  |
| COc1ccc2[nH]c(C(=O)NN=Cc3cccc(O)c3O)cc2c1 [Compound 5a, N′-(2,3-Dihydroxybenzylidene)-5-methoxy-1H-indole-2-carbohydrazide] | 56 | about 50% | 79.3 | reduced the permeability |  | 262 to 263 | passage through the BBB model was induced | less than 15% |  |  |  |  |  |  |
| COc1ccc2[nH]cc(CCNC(C)=O)c2c1 [Melatonin] | 78 |  | > 500 |  |  |  |  |  | did not influence the permeability |  |  |  |  |  |
| COc1cc(C=NNC(=O)CCc2c[nH]c3ccccc23)cc(OC)c1O [Compound 3f, N′-(4-Hydroxy-3,5-dimethoxybenzylidene)-3-(1H-indol-3-yl)propanehydrazide] | 44 |  | > 500 | increased the permeability |  | 134 to 135 |  | less than 15% |  | 0.5 |  |  |  |  |
| COc1ccc2[nH]c(C(=O)NN=Cc3cc(OC)c(O)c(OC)c3)cc2c1 [Compound 5f, N′-(4-Hydroxy-3,5-dimethoxybenzylidene)-5-methoxy-1H-indole-2-carbohydrazide] | 56 |  | 287 |  |  | 239 to 240 | decreased it |  |  |  | 8 |  |  |  |
| COc1cc(C=NNC(=O)CCc2c[nH]c3ccccc23)ccc1O [Compound 3d, N′-(4-Hydroxy-3-methoxybenzylidene)-3-(1H-indol-3-yl)propanehydrazide] | 33 |  | 156 | increased the permeability |  | 157 to 158 |  | less than 15% |  |  |  | about 10% |  |  |
| COc1ccc2[nH]c(C(=O)NN=Cc3ccc(O)c(OC)c3)cc2c1 [Compound 5d, N′-(4-Hydroxy-3-methoxybenzylidene)-5-methoxy-1H-indole-2-carbohydrazide] | 44 | did not induce a modulating effect | 98.2 |  |  | 261 | decreased it |  |  |  | 23 |  |  |  |
| COc1ccc2[nH]c(C(=O)NN=Cc3ccc(O)c(O)c3)cc2c1 [Compound 5b, N′-(3,4-Dihydroxybenzylidene)-5-methoxy-1H-indole-2-carbohydrazide] | 44 |  | 111 | reduced the permeability |  | 252 to 253 | passage through the BBB model was induced |  |  |  |  |  | 20 |  |
| N′-(4-Hydroxy-2-methoxybenzylidene)-3-(1H-indol-3-yl)propanehydrazide [Compound 3e] |  |  |  | increased the permeability | approximately 135% |  |  |  |  |  |  | about 10% |  | 33 |
| COc1ccc(C=NNC(=O)c2cc3cc(OC)ccc3[nH]2)c(O)c1 [Compound 5e, N′-(2-Hydroxy-4-methoxybenzylidene)-5-methoxy-1H-indole-2-carbohydrazide] | 56 | did not induce a modulating effect | 200 |  |  |  |  |  |  |  | 40 |  |  |  |
